21 molecules from patent US20250009742A1 (priority 2021, published 2025) can be followed below.

The subject of series [1] is intracellular HBV DNA. Nature of the series: Real-time PCR for intracellular HBV DNA in HepAD38 cells. It is filed as cell-based. The settings on record: Hepatitis B virus, HePAD38, 65 h, 65 hours treatment. A general note: Quantitative PCR measures a nucleic acid by following its amplification.
The target of series [2] is Protein (Hepatitis B virus genotype D subtype ayw, UniProt P03146). The series is described as follows: Protein inhibition rate / EC50 (Table 1, no method described). It is filed as biochemical.
A short description of series [3]: Cell viability assay (EZ-Cytox), cytotoxicity. It is filed as cell-based. As to conditions: human, HepAD38 cells; for viability at 65 h, 100 µM: read-out: Cytotoxicity % Livability (@100 μM). How it is done: HepAD38 cells were cultured for 2 days in Dulbecco's Modified Eagle's medium (Welgene, LM001-05) supplemented with 10% FBS without tetracycline. […] After 65 hours of treatment, viability was measured using EZ-Cytox cell viability assay kit (Daeil Lab Service) according to the manufacturer's instructions. The absorbance was measured at 450 nm using a spectrophotometer (Spark, Tecan).

Sequence of Protein (P03146 whole entry): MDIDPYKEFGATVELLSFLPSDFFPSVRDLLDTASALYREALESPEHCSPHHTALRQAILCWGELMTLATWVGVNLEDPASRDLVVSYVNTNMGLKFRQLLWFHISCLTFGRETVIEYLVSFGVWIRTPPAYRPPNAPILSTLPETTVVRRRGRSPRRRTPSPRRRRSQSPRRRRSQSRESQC

Consider `COc1ccc(N(Cc2n[nH]c3c2CCC3)C(=O)Nc2ccc(F)c(Cl)c2)cc1` [Example 46, 3-(3-chloro-4-fluorophenyl)-1-(4-methoxyphenyl)-1-((1,4,5,6-tetrahydrocyclopenta[c]pyrazol-3-yl)methyl)urea], for which, in series [1], the midpoint of inhibition, the IC50, lay at 0.0094 µM. Also, in series [2], a half-maximal response (EC50) required 4.3 µM and the inhibition (as a rule, the percentage by which the read-out fell short of the control) at 30 µM amounted to 92.8%. For the same molecule, in series [3], the cytotoxic concentration (CC50) – broadly, the concentration giving 50% cytotoxicity – at 65 h is above 100 µM and the viability at 65 h, 100 µM stood at 100%.

On to `COc1ccc(N(Cc2n[nH]c3c2CC(C)(C)CC3)C(=O)Nc2ccc(F)c(Cl)c2)cn1` [Example 47, 3-(3-chloro-4-fluorophenyl)-1-((5,5-dimethyl-4,5,6,7-tetrahydro-1H-indazol-3-yl)methyl)-1-(6-methoxypyridin-3-yl)urea], for which, in series [1], half-maximal inhibition (IC50) was put at 0.99 µM. For the same molecule, in series [2], the concentration giving a half-maximal response (EC50) (usually the concentration giving half of the maximal effect) amounted to 9.6 µM and the inhibition at 30 µM came out at 95.3%. In addition, in series [3], the CC50 at 65 h is above 100 µM and the viability at 65 h, 100 µM is 50.7%.

As for `COc1ccc(N(Cc2n[nH]c3c2CC(O)CC3)C(=O)Nc2ccc(F)c(Cl)c2)cn1` (stereo not shown) [Example 48, 3-(3-chloro-4-fluorophenyl)-1-((5-hydroxy-4,5,6,7-tetrahydro-1H-indazol-3-yl)methyl)-1-(6-methoxypyridin-3-yl)urea], the IC50 (usually the concentration needed to halve the response being measured) in series [1] amounted to 1.1 µM. In series [2], this molecule displayed a half-maximal effective concentration (EC50) of 6.4 µM and an inhibition at 30 µM of 90%. For the same molecule, the cytotoxic concentration (CC50) at 65 h in series [3] was above 100 µM.

With `COc1ccc(N(Cc2n[nH]c3c2CS(=O)(=O)CC3)C(=O)Nc2ccc(F)c(Cl)c2)cn1` [Example 49, 3-(3-chloro-4-fluorophenyl)-1-((5,5-dioxido-1,4,6,7-tetrahydrothiopyrano[4,3-c]pyrazol-3-yl)methyl)-1-(6-methoxypyridin-3-yl)urea], in series [1], the half-inhibitory concentration (IC50) is above 1.1 µM. In series [2], this molecule came in with an inhibition at 30 µM of 72%. The CC50 at 65 h in series [3] is above 100 µM.

`COc1ccc(N(Cc2cc(C)[nH]n2)C(=O)Nc2ccc(F)c(Cl)c2)cn1` [Example 50, 3-(3-chloro-4-fluorophenyl)-1-(6-methoxypyridin-3-yl)-1-((5-methyl-1H-pyrazol-3-yl)methyl)urea]: in series [1], the IC50 turned out to be 0.26 µM. Also, in series [2], it took 3.8 µM to reach a half-maximal effect (EC50) and 30 µM produced 94.3% inhibition. Moreover, the half-maximal cytotoxic concentration (CC50) at 65 h in series [3] was above 100 µM.

Turning to `COc1ccc(N(Cc2n[nH]c3c2C2CCC3C2)C(=O)Nc2ccc(F)c(Cl)c2)cn1` (stereo not shown) [Example 51, 3-(3-chloro-4-fluorophenyl)-1-(6-methoxypyridin-3-yl)-1-((4,5,6,7-tetrahydro-1H-4,7-methanoindazol-3-yl)methyl)urea], in series [1], the half-maximal inhibitory concentration (IC50) amounted to 0.035 µM. Besides, in series [2], the EC50 turned out to be 3.4 µM and the inhibition at 30 µM amounted to 87.1%. In series [3], the 50% cytotoxic concentration (CC50) at 65 h was above 50 µM and the viability at 65 h, 100 µM is 36.7%.

As for `COc1ccc(N(Cc2n[nH]c3c2CC(C(=O)O)CC3)C(=O)Nc2ccc(F)c(Cl)c2)cn1` (stereo not shown) [Example 52, 3-((3-(3-chloro-4-fluorophenyl)-1-(6-methoxypyridin-3-yl)ureido)methyl)-4,5,6,7-tetrahydro-1H-indazole-5-carboxylic acid], the IC50 in series [1] is above 1.1 µM. Further, in series [2], the inhibition at 30 µM turned out to be 4%. Also, in series [3], the half-maximal cytotoxic concentration (CC50) at 65 h was above 100 µM and the viability at 65 h, 100 µM was 100%.

In series [1], `COC(=O)C1CCc2[nH]nc(CN(C(=O)Nc3ccc(F)c(Cl)c3)c3ccc(OC)nc3)c2C1` (stereo not shown) [Example 53, methyl 3-((3-(3-chloro-4-fluorophenyl)-1-(6-methoxypyridin-3-yl)ureido)methyl)-4,5,6,7-tetrahydro-1H-indazole-5-carboxylate] showed a concentration for half-maximal inhibition (IC50) above 1.1 µM. Moreover, in series [2], the inhibition at 30 µM turned out to be 20.1%. Besides, in series [3], the 50% cytotoxic concentration (CC50) at 65 h is above 100 µM and the viability at 65 h, 100 µM came out at 58.9%.

In series [1], `COc1cc(N(Cc2n[nH]c3c2CCCC3)C(=O)Nc2ccc(F)c(Cl)c2)ccn1` [Example 54, 3-(3-chloro-4-fluorophenyl)-1-(2-methoxypyridin-4-yl)-1-((4,5,6,7-tetrahydro-1H-indazol-3-yl)methyl)urea] showed an IC50 of 0.013 µM. Also, in series [2], it took 3.5 µM to reach a half-maximal effect (EC50) and the inhibition at 30 µM was determined as 84%. Moreover, in series [3], the half-maximal cytotoxic concentration (CC50) at 65 h came to 40.6 µM and the viability at 65 h, 100 µM stood at 17.4%.

Take `COc1ccc(N(Cc2n[nH]cc2C)C(=O)Nc2ccc(F)c(Cl)c2)cn1` [Example 56, 3-(3-chloro-4-fluorophenyl)-1-(6-methoxypyridin-3-yl)-1-((4-methyl-1H-pyrazol-3-yl)methyl)urea]: the IC50 in series [1] was determined as 0.4 µM. In addition, in series [2], the EC50 stood at 6.6 µM and the inhibition at 30 µM worked out at 86.4%. In series [3], the half-maximal cytotoxic concentration (CC50) at 65 h was above 100 µM and the viability at 65 h, 100 µM worked out at 98.2%.

With `COc1ccc(N(Cc2n[nH]c(C)c2C)C(=O)Nc2ccc(F)c(Cl)c2)cn1` [Example 57, 3-(3-chloro-4-fluorophenyl)-1-((4,5-dimethyl-1H-pyrazol-3-yl)methyl)-1-(6-methoxypyridin-3-yl)urea], half-maximal inhibition in series [1] (IC50) was put at 0.023 µM. In series [2], this molecule gave an EC50 of 2 µM and an inhibition at 30 µM of 96.2%. Besides, in series [3], the CC50 at 65 h is above 100 µM and the viability at 65 h, 100 µM was found to be 93.2%.

In turn, `COc1ccc(N(Cc2cc(C(C)C)[nH]n2)C(=O)Nc2ccc(F)c(Cl)c2)cn1` [Example 58, 3-(3-chloro-4-fluorophenyl)-1-((5-isopropyl-1H-pyrazol-3-yl)methyl)-1-(6-methoxypyridin-3-yl)urea] had an IC50 in series [1] of 0.16 µM. Besides, in series [2], the midpoint of the response, the EC50, lay at 5 µM and at 30 µM the inhibition was 93.1%. For the same molecule, in series [3], the cytotoxic concentration (CC50) at 65 h was above 100 µM and the viability at 65 h, 100 µM is 92.7%.

In turn, `COc1ccc(N(Cc2n[nH]c3c2CCC3C)C(=O)Nc2ccc(F)c(Cl)c2)cn1` (stereo not shown) [Example 59, 3-(3-chloro-4-fluorophenyl)-1-(6-methoxypyridin-3-yl)-1-((6-methyl-1,4,5,6-tetrahydrocyclopenta[c]pyrazol-3-yl)methyl)urea] registered an IC50 in series [1] of 0.013 µM. In series [2], the EC50 is 4 µM and at 30 µM the inhibition was 94.9%. In addition, in series [3], the CC50 at 65 h was above 100 µM and the viability at 65 h, 100 µM was 91.2%.

The molecule `CCc1cc(CN(C(=O)Nc2ccc(F)c(Cl)c2)c2ccc(OC)nc2)n[nH]1` [Example 60, 3-(3-chloro-4-fluorophenyl)-1-((5-ethyl-1H-pyrazol-3-yl)methyl)-1-(6-methoxypyridin-3-yl)urea] had an IC50 in series [1] of 0.11 µM. Besides, in series [2], the concentration for a half-maximal effect (EC50) is 3 µM and 30 µM produced 94.7% inhibition. Further, in series [3], the half-maximal cytotoxic concentration (CC50) at 65 h is above 100 µM and the viability at 65 h, 100 µM was determined as 76%.

Molecule `COc1ccc(N(Cc2n[nH]c3c2CC(C(F)(F)F)CC3)C(=O)Nc2ccc(F)c(Cl)c2)cn1` (stereo not shown) [Example 62, 3-(3-chloro-4-fluorophenyl)-1-(6-methoxypyridin-3-yl)-1-((5-(trifluoromethyl)-4,5,6,7-tetrahydro-1H-indazol-3-yl)methyl)urea] gave an IC50 in series [1] of 0.2 µM. In series [2], this molecule had an EC50 of 6.9 µM and an inhibition at 30 µM of 100%. Moreover, in series [3], the midpoint of cytotoxicity, the CC50 at 65 h, lay at 86.7 µM and the viability at 65 h, 100 µM turned out to be 6.5%.

`COc1ccc(N(Cc2n[nH]c3c2CCCO3)C(=O)Nc2ccc(F)c(Cl)c2)cn1` [Example 63, 3-(3-chloro-4-fluorophenyl)-1-(6-methoxypyridin-3-yl)-1-((1,4,5,6-tetrahydropyrano[2,3-c]pyrazol-3-yl)methyl)urea] returned a concentration for half-maximal inhibition (IC50) in series [1] of 0.014 µM. For the same molecule, in series [2], the response was half-maximal at 2.6 µM (EC50) and at 30 µM the inhibition was 90.5%. In series [3], the CC50 at 65 h is above 100 µM and the viability at 65 h, 100 µM is 94.5%.

Regarding `COc1ccc(N(Cc2cc(OC)[nH]n2)C(=O)Nc2ccc(F)c(Cl)c2)cn1` [Example 64, 3-(3-chloro-4-fluorophenyl)-1-((5-methoxy-1H-pyrazol-3-yl)methyl)-1-(6-methoxypyridin-3-yl)urea], the IC50 in series [1] was 0.18 µM. In addition, in series [2], the EC50 worked out at 5.8 µM and 30 µM produced 91.1% inhibition. Further, in series [3], the CC50 at 65 h is above 100 µM and the viability at 65 h, 100 µM came out at 100%.

In turn, `Cn1cc(N(Cc2n[nH]c3c2CCC3)C(=O)Nc2ccc(F)c(Cl)c2)ccc1=O` [Example 65, 3-(3-chloro-4-fluorophenyl)-1-(1-methyl-6-oxo-1,6-dihydropyridin-3-yl)-1-((1,4,5,6-tetrahydrocyclopenta[c]pyrazol-3-yl)methyl)urea] showed a half-maximal inhibitory concentration (IC50) in series [1] above 1.1 µM. In series [2], this molecule displayed a concentration for a half-maximal effect (EC50) above 30 µM and an inhibition at 30 µM of 53.5%. In addition, in series [3], the half-maximal cytotoxic concentration (CC50) at 65 h is above 100 µM and the viability at 65 h, 100 µM was determined as 112%.

On to `O=C(Nc1ccc(F)c(Cl)c1)N(Cc1n[nH]c2c1CCC2)c1ccc(O)cc1` [Example 114, 3-(3-chloro-4-fluorophenyl)-1-(4-hydroxyphenyl)-1-((1,4,5,6-tetrahydrocyclopenta[c]pyrazol-3-yl)methyl)urea], for which the IC50 in series [1] amounted to 0.014 µM. In series [2], this molecule registered a 50% effective concentration (EC50) of 1.6 µM and an inhibition at 30 µM of 74.6%. For the same molecule, in series [3], it took 54.5 µM to reach half-maximal cytotoxicity (CC50 at 65 h) and the viability at 65 h, 100 µM came out at 7.9%.

Take `COc1ccc(N(Cc2n[nH]c3c2CCCC3)C(=O)Nc2ccc(F)c(Cl)c2)cc1OC` [Example 116, 3-(3-chloro-4-fluorophenyl)-1-(3,4-dimethoxyphenyl)-1-((4,5,6,7-tetrahydro-1H-indazol-3-yl)methyl)urea]: in series [1], the IC50 was above 1.1 µM. The same molecule displayed an inhibition at 30 µM in series [2] of 69.5%. For the same molecule, in series [3], the CC50 at 65 h was above 100 µM and the viability at 65 h, 100 µM came out at 104%.

For `COc1cc(OC)cc(N(Cc2n[nH]c3c2CCCC3)C(=O)Nc2ccc(F)c(Cl)c2)c1` [Example 117, 3-(3-chloro-4-fluorophenyl)-1-(3,5-dimethoxyphenyl)-1-((4,5,6,7-tetrahydro-1H-indazol-3-yl)methyl)urea], in series [1], the IC50 was above 1.1 µM. In series [2], this molecule came in with an inhibition at 30 µM of 7%. For the same molecule, in series [3], the 50% cytotoxic concentration (CC50) at 65 h was above 33 µM and the viability at 65 h, 100 µM came to 3.2%.
